# Entries after “also recorded” stand apart in the source; their conditions may differ.
# Columns and labels:
# TRP-1 = test: Western blotting of TRP-1 in B16F10 cells; type: cell-based, murine; details: 48 h
# Procedure: (§1) Equal amounts of proteins from the preceding step were loaded and separated by using the 10% SDS-PAGE gels before being electro-transferred onto polyvinylidene fluoride membranes. The membrane was then blocked with 5% skim milk in TBST (Tris-buffered saline containing 0.1% Tween 20) at room temperature for 2 h. The blots were incubated overnight with primary antibodies against TYR, TRP-1, MITF, DCT, and β-actin at 4°C. After washing thrice with TBST (5 min), the membrane was incubated with the secondary antibody for 1 h at room temperature. The protein bands were detected using the ECL detection kit and imaged using a chemiluminescence gel imaging system, and the band intensities were analyzed by the Image J software.
# [1] = molecular target: T1, Intracellular tyrosinase in B16F10 cells (Mus musculus, UniProt P11344); test: Measurement of tyrosinase activity in B16F10 cells (L-DOPA oxidation); type: cell-based, murine; details: 48 h
# T1 construct: endogenous in cells; host or cells: B16F10 murine melanoma cells
# T1 sequence (P11344 19-533): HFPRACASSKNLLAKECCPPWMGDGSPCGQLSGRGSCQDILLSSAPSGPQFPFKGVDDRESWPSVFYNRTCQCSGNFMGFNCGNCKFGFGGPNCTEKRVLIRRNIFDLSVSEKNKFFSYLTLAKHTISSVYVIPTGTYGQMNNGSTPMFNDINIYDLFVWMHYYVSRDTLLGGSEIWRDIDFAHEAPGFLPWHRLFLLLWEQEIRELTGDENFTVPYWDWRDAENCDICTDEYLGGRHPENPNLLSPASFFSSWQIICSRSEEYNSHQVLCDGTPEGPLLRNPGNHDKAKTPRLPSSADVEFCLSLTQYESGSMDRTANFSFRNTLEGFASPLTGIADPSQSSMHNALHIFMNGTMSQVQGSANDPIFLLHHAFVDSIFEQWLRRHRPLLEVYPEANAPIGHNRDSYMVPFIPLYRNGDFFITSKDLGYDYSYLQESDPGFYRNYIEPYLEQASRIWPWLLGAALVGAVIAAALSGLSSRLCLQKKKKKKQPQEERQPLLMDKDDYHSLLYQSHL
# Procedure: Intracellular tyrosinase activity was determined by measuring the rate of oxidation of L-DOPA to dopachrome according to a previously described method with a slight modification ([Maack and Pegard, 2016]). The tyrosinase inhibitor glabridin ([Zhang et al., 2023]) and tyrosinase activator 8-MOP ([Yin et al., 2018]) were both utilized as controls to ensure the accuracy of tyrosinase activity assay in living cells. B16F10 cells were cultured in 24-well plates at the density of 5 × 10^4 cells/mL overnight and then treated with different concentrations of test samples for 48 h. After treatments, cells were washed twice with PBS, lysed with PBS containing 1% Triton X-100, and frozen at −80°C for 1 h. The lysates were then clarified by centrifugation for 20 min at 4°C, 12,000 r/min. The protein content in the supernatants was measured using the Pierce BCA protein assay kit. After protein quantification and the adjustment of the protein concentrations, 100 μL of each lysate was mixed with 100 μL of 4 mM L-DOPA in a 96-well plate, and then incubated at 37°C for 1 h, the optical density at 475 nm was measured using a microplate reader. Tyrosinase activity was expressed as a percentage of the control. All experiments were carried out at least three times.
# zebrafish larvae [2] = test: Zebrafish depigmentation model (without PTU pretreatment); type: in vivo; details: 48 h, no PTU pretreatment
# Procedure: (§2) To assess the effects of these compounds on melanogenesis in vivo, the total melanin content of whole zebrafish extracts was measured according to a previously described method with minor modification ([Karunarathne et al., 2019]; [Ding et al., 2021]). Briefly, zebrafish larvae of 24 h post-fertilized (hpf) were seeded in 24-well plates with ten embryos per well, each group was set up with four replicates and pretreated with 200 μM PTU for 24 h. Then, the culture medium was replaced with different concentrations of test samples and treated for another 48 h. 8-MOP (50 μM) was used as a positive control, blank controls were not treated and were cultured normally. In addition, to further verify the whitening effect of the compounds, ten zebrafish larvae (24 hpf) per well were seeded in a 24-well plate and cultured for another 24 h using fresh culture media, and each group was set up with four duplicates. Then, the culture medium was replaced with different concentrations of test samples, and the zebrafish larvae were incubated for another 48 h. 8-MOP (50 μM) and arbutin (100 mM) were used as positive controls. Spontaneous melanin content was measured from zebrafish larvae at 96 hpf. The fish embryos were fixed upright with sodium carboxymethylcellulose fixative. Five fish embryos from each experiment were randomly selected for photography under a stereomicroscope. The densitometric analysis was performed using Image J software.
# zebrafish larvae [3] = test: Melanogenesis in zebrafish larvae pretreated with PTU; type: in vivo; details: 48 h, PTU 200 μM pretreatment
# Procedure: as §2
# [4] = Cell viability assay (MTT); type: cell-based, murine; details: mouse, B16F10 cells
# Procedure: B16F10 cells were seeded into 96-well plates at the density of 5 × 10^4 cells/mL, and incubated at 37°C for 24 h. Then, the cells were treated with different concentrations of test samples for 48 h. After incubation, 20 μL MTT (5 mg/mL) was added to each well, and incubated for another 4 h at 37°C. The reaction was stopped by adding 150 μL DMSO per well. The optical density at 490 nm was measured using a microplate reader. Cell viability was calculated as the percentage of viable cells relative to the control group.
# B16F10 cells = test: Measurement of melanin content in B16F10 cells; type: cell-based, murine; details: 48 h; for increase of intracellular melanin content: vs untreated cells
# Procedure: Measurement of melanin content was carried out according to a previously described method with a slight modification ([Karunarathne et al., 2019]). B16F10 cells were cultured in 6-well plates at the density of 2 × 10^5 cells/mL overnight before being treated with different concentrations of test samples for 48 h. After the treatments, the medium was discarded and the cells were washed twice with PBS and were collected, then 200 μL of RIPA lysis buffer was added to each well, and left standing in an ice bath for 40 min. The lysates were then clarified by centrifugation for 20 min at 4°C, 12,000 r/min. The protein content in the supernatants was measured using the Pierce BCA protein assay kit. Then the harvested cell pellets were photographed and dissolved in 100 μL of 1 M NaOH (containing 10% DMSO) at 100°C for 1 h. Melanin content was determined by measuring absorption at 405 nm. For the accurate calculation of melanin content, absorbance values were normalized to total protein absorbance values.
# MITF = test: Western blotting of MITF in B16F10 cells; type: cell-based, murine; details: 48 h
# Procedure: as §1
# mushroom tyrosinase = mushroom tyrosinase (Agaricus bisporus, UniProt C7FF04); test: Tyrosinase inhibition kinetic analysis (Lineweaver-Burk); type: biochemical; details: Lineweaver-Burk plots, L-tyrosine substrate
# Procedure: The enzyme reaction kinetics of these compounds were measured by constructing Lineweaver-Burk plots of inverse velocities (1/[V]), contrary to the inverse of substrate concentration (1/[S]) ([Yoshino and Murakami, 2009]; [Butt et al., 2019]). Preincubations and measurement times were performed using the same protocol as described above. The substrate tyrosine concentration was kept between 0.5 and 8 mM in all kinetic studies, test sample concentrations were set as follows: glabridin (0–0.625 µM), KR (0–5 µM), SG (0–10 µM), IAI (0–2 µM). The values of the kinetic constants were calculated using Lineweaver-Burk plot analysis, and the maximum velocity (Vmax) and Michaelis constant (Km) were also calculated by the Lineweaver-Burk plots with the various concentrations of substrate.
# DCT = test: Western blotting of DCT in B16F10 cells; type: cell-based, murine; details: 48 h
# Procedure: as §1
# zebrafish embryos = test: Determination of the maximum tolerated concentration (MTC) in zebrafish embryos; type: in vivo; details: 24 h
# Procedure: Zebrafish embryos that were developing normally at 24 h were chosen at random, five zebrafish embryos per well were seeded in 48 well plates, and each group was set up with three duplicates. The embryo culture medium in the 48-well plate was removed except the blank group, and 1 mL of culture medium containing different concentrations of test samples was added to treatment groups for 24 h. The vehicle control group was added to the embryo culture medium containing 0.1% of DMSO.
# tyrosinase = molecular target: tyrosinase; set-up: method as in Kim et al., 2003; details: ref Kim et al., 2003; read-out: IC50 (inhibition on tyrosinase activity); cited from earlier work
# mushroom tyrosinase, sequence (C7FF04 1-392): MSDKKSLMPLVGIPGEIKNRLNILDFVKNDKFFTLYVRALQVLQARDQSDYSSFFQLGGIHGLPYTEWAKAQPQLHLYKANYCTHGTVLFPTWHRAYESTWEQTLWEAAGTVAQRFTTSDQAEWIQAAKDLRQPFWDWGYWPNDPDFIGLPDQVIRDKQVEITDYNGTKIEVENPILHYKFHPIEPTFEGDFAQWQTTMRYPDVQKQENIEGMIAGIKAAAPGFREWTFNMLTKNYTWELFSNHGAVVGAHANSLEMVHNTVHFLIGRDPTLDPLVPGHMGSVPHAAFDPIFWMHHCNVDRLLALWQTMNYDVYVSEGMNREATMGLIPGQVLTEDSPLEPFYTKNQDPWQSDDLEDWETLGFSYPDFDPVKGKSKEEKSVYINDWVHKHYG
compound,measurement,setting,value
"COc1c2occc2cc2ccc(=O)oc12 [8-MOP, 8-methoxypsoralen, reference compound]",expression of TRP-1 (in words),TRP-1; positive control,increased
same,effect on tyrosinase activity in B16F10 cells (in words),[1],enhance cellular tyrosinase activity
same,effect on melanin production vs control group (in words),zebrafish larvae [2],did not affect melanin production
same,increase of melanin production vs model (PTU) group,zebrafish larvae [3]; 50 μM,25.0%
same,viability at 48 h,[4]; 0–100 μM,> 80%
same,effect on melanin production in B16F10 cells (in words),B16F10 cells,promoted melanin biosynthesis
same,expression of MITF (in words),MITF; positive control,increased
"CC1(C)C=Cc2c(ccc3c2OC[C@@H](c2ccc(O)cc2O)C3)O1 [Glabridin, glabridin, reference compound]",effect on tyrosinase activity in B16F10 cells (in words),[1],inhibited tyrosinase activity
same,viability at 48 h,[4]; 0–2 μM,> 80%
same,effect on melanin production in B16F10 cells (in words),B16F10 cells,strong anti-melanogenic effect
"COc1cc(O)c2c(=O)c(O)c(-c3ccc(O)cc3)oc2c1CC=C(C)C [IAI, isoanhydroicaritin]",upregulation of relative expression of TRP-1 protein,TRP-1; 5 μM,240.0%
same,increase of tyrosinase activity in B16F10 cells,[1]; 5 μM,25.2%
same,effect on tyrosinase activity in B16F10 cells (in words),[1],did not exhibit significant activity
same,reduction of pigmentation vs control group,zebrafish larvae [2]; 80 μM,33.0%
same,reduction of pigmentation vs control group,zebrafish larvae [2]; 160 μM,34.4%
same,inhibition type on tyrosinase,mushroom tyrosinase,mixed type
same,viability at 48 h,[4]; 0–5 μM,> 80%
same,effect on melanin production in B16F10 cells (in words),B16F10 cells,did not exhibit significant activity; also recorded: did not exert any significant effects
same,upregulation of relative expression of DCT protein,DCT; 5 μM,83.4%
same,toxicity in zebrafish by the MTC assay,"zebrafish embryos; 40, 80, and 160 μM",nontoxic
"C=C(C)[C@H](CC=C(C)C)Cc1c(O)cc(OC)c2c1O[C@H](c1ccc(O)cc1O)CC2=O [KR, kurarinone]",upregulation of relative expression of TRP-1 protein,TRP-1; 10 μM,79.2%
same,increase of tyrosinase activity in B16F10 cells,[1]; 2.5 μM,25.1%
same,increase of tyrosinase activity in B16F10 cells,[1]; 5 μM,42.1%
same,increase of tyrosinase activity in B16F10 cells,[1]; 10 μM,77.2%
same,effect on tyrosinase activity in B16F10 cells (in words),[1],enhanced intracellular tyrosinase activity
same,effect on melanin production vs control group (in words),zebrafish larvae [2],did not affect melanin production
same,inhibition type on tyrosinase,mushroom tyrosinase,mixed type
same,increase of melanin production vs model (PTU) group,zebrafish larvae [3]; 20 μM,36.9%
same,viability at 48 h,[4]; 0–20 μM,> 80%
same,increase of intracellular melanin content,B16F10 cells; 5 μM,61.6%
same,increase of intracellular melanin content,B16F10 cells; 10 μM,85.5%
same,effect on melanin production in B16F10 cells (in words),B16F10 cells,stimulated melanin production
same,upregulation of relative expression of DCT protein,DCT; 10 μM,127.8%
same,IC50,tyrosinase,6.2 µM
same,upregulation of relative expression of MITF protein,MITF; 10 μM,84.0%
same,toxicity in zebrafish by the MTC assay,"zebrafish embryos; 5, 10, and 20 μM",nontoxic
"OC[C@H]1O[C@@H](Oc2ccc(O)cc2)[C@H](O)[C@@H](O)[C@@H]1O [arbutin, reference compound]",reduction of pigmentation vs control group,zebrafish larvae [2]; 100 mM,51.4%
"C=C(C)[C@H](CC=C(C)C)Cc1c(O)cc(OC)c(C(=O)/C=C/c2ccc(O)cc2O)c1O [kuraridin, reference compound]",IC50,tyrosinase,0.6 µM

# — article PMC11266098, “Prenylated flavonoids from Sophora flavescens inhibit mushroom tyrosinase activity and modulate melanogenesis in murine melanoma cells and zebrafish” (Frontiers in Pharmacology, 2024)
